Reference: ChEMBL document CHEMBL4507265 (2021)

Columns and labels:
[1] = GPCRScan assay: inhibition of GABA/PBR; set-up: species or system Rattus norvegicus; radioligand conc. used [nm] 0.3 – 2.0, parental cells brain tissue
[2] = target: Mitotic checkpoint serine/threonine-protein kinase BUB1 (Homo sapiens) (UniProt O43683); conditions: Compound concentration 1000.0 nM
[3] = target: Cyclin-dependent kinase 11A (Homo sapiens) (UniProt Q9UQ88); conditions: Compound concentration 1000.0 nM
[4] = target: Cyclin-dependent kinase 19 (Homo sapiens) (UniProt Q9BWU1); conditions: Compound concentration 1000.0 nM
[5] = target: Casein kinase II subunit alpha' (Homo sapiens) (UniProt P19784); conditions: Compound concentration 1000.0 nM
[6] = test system: Epidermal growth factor receptor (Homo sapiens), P00533 [UNDEFINED MUTATION]; conditions: Compound concentration 1000.0 nM
[7] = test system: Receptor-type tyrosine-protein kinase FLT3 (Homo sapiens), P36888 [UNDEFINED MUTATION]; conditions: Compound concentration 1000.0 nM
[8] = test system: Mast/stem cell growth factor receptor Kit (Homo sapiens), P10721 [L576P]; conditions: Compound concentration 1000.0 nM
[9] = target: Leucine-rich repeat serine/threonine-protein kinase 2 (Homo sapiens) (UniProt Q5S007); conditions: Compound concentration 1000.0 nM
[10] = target: Dual specificity mitogen-activated protein kinase kinase 4 (Homo sapiens) (UniProt P45985); conditions: Compound concentration 1000.0 nM
[11] = target: Dual specificity protein kinase TTK (Homo sapiens) (UniProt P33981); conditions: Compound concentration 1000.0 nM
[12] = target: Mitogen-activated protein kinase kinase kinase 20 (Homo sapiens) (UniProt Q9NYL2); conditions: Compound concentration 1000.0 nM
[13] = target: D(2) dopamine receptor (Homo sapiens) (UniProt P14416); conditions: Compound concentration 10.0 uM
[14] = target: Sodium-dependent serotonin transporter (Homo sapiens) (UniProt P31645); conditions: Compound concentration 10.0 uM
[15] = target: Sodium-dependent noradrenaline transporter (Homo sapiens) (UniProt P23975); conditions: Compound concentration 10.0 uM
[16] = target: Histamine H2 receptor (Homo sapiens) (UniProt P25021); conditions: Compound concentration 10.0 uM
[17] = target: 5-hydroxytryptamine receptor 2C (Homo sapiens, UniProt P28335); assay: GPCRScan assay: inhibition of 5-HT2C; set-up: radioligand conc. used [nm] 1.0 – 2.5, parental cells HEK T
Rattus norvegicus [18] = organism: Rattus norvegicus; assay: Testosterone Eurofins-Panlabs radioligand binding assay; set-up: ligand concentration 1.5 nM; conditions: Compound concentration 10.0 uM
[19] = target: L-type calcium channel, benzothiazepine site (Cav1.2 alpha-1C) (Homo sapiens, UniProt Q13936); assay: Inhibition of Calcium Channel L-Type, Benzothiazepine at 10 µM in the Eurofins-Panlabs radioligand binding assay (Eurofins_assay_214510); set-up: ligand concentration 2 nM, non-specific ligand with concentration 10 µM Diltiazem, incubation time 3h, incubation temperature 4 °C; conditions: male, Wistar, rat, rat whole brain preparation, probe [3H] Diltiazem, 2 nM; compound concentration 10 uM; target entry is the homologue from another species
[20] = target: L-type calcium channel, dihydropyridine site (Cav1.2 alpha-1C) (Homo sapiens, UniProt Q13936); assay: Inhibition of Calcium Channel L-Type, Dihydropyridine at 10 µM in the Eurofins-Panlabs radioligand binding assay (Eurofins_assay_214600); set-up: ligand concentration 0.1 nM, non-specific ligand with concentration 1 µM Nitrendipine, incubation time 90 min, incubation temperature 25 °C; conditions: Wistar, rat, rat cerebral cortex preparation, probe [3H] Nitrendipine, 0.1 nM; compound concentration 10 uM; target entry is the homologue from another species
[21] = target: Epidermal growth factor receptor (Homo sapiens) (UniProt P00533); assay: Inhibition of Epidermal Growth Factor (EGF) at 10 µM in the Eurofins-Panlabs radioligand binding assay (Eurofins_assay_225510); conditions: Compound concentration 10.0 uM
[22] = target: GABA-A receptor; anion channel (Rattus norvegicus) (UniProt O09028+P15431+P18506+P18508+P19969+P20236+P23574+P23576+P28471+P28473+P30191+P62813+P63079+P63138+Q91ZM7+Q9ES14); assay: Inhibition of GABAA, Muscimol, Central at 10 µM in the Eurofins-Panlabs radioligand binding assay (Eurofins_assay_226500); assay type: protein-complex assay; conditions: Compound concentration 10.0 uM
[23] = target: Gamma-aminobutyric acid type B receptor subunit 1 (Homo sapiens) (UniProt Q9UBS5); assay: Inhibition of GABAB1A at compound concentration of 10.0 uM in the Eurofins-Panlabs radioligand binding assay (Eurofins_assay_228610); set-up: ligand concentration 4 nM; conditions: Compound concentration 10.0 uM
[24] = target: Glucocorticoid receptor (Homo sapiens) (UniProt P04150); assay: Glucocorticoid Eurofins-Panlabs radioligand binding assay; conditions: Compound concentration 10.0 uM
[25] = target: Glutamate receptor ionotropic, kainate (Rattus norvegicus) (UniProt P22756+Q01812+P42260+P42264+Q63273); assay: Inhibition of Glutamate, Kainate at 10 µM in the Eurofins-Panlabs radioligand binding assay (Eurofins_assay_232700); conditions: Compound concentration 10.0 uM
Rattus norvegicus [26] = organism: Rattus norvegicus; assay: Inhibition of Imidazoline I2, Central at 10 µM in the Eurofins-Panlabs radioligand binding assay (Eurofins_assay_241000); set-up: ligand concentration 2 nM; conditions: Compound concentration 10.0 uM
[27] = target: ATP-sensitive inward rectifier potassium channel 11 (Cricetulus griseus) (UniProt A0A3L7HHE1); assay: Inhibition of Potassium Channel [KATP] at 10 µM in the Eurofins-Panlabs radioligand binding assay (Eurofins_assay_265600); conditions: Cricetinae; Compound concentration 10.0 uM
[28] = target: Adenosine receptor A1 (Homo sapiens) (UniProt P30542); conditions: Compound concentration 10.0 uM
[29] = target: Cannabinoid receptor 1 (Homo sapiens) (UniProt P21554); conditions: Compound concentration 10.0 uM
[30] = target: Endothelin-1 receptor (Homo sapiens) (UniProt P25101); conditions: Compound concentration 10.0 uM
[31] = target: Sodium-dependent dopamine transporter (Homo sapiens) (UniProt Q01959)
Rattus norvegicus [32] = organism: Rattus norvegicus; conditions: Compound concentration 10.0 uM
[33] = target: Sodium-dependent serotonin transporter (Homo sapiens) (UniProt P31645); conditions: Compound concentration 10.0 uM; remark: listed apart in the source

Sodium-dependent serotonin transporter (Homo sapiens), sequence (P31645 whole entry, looked up): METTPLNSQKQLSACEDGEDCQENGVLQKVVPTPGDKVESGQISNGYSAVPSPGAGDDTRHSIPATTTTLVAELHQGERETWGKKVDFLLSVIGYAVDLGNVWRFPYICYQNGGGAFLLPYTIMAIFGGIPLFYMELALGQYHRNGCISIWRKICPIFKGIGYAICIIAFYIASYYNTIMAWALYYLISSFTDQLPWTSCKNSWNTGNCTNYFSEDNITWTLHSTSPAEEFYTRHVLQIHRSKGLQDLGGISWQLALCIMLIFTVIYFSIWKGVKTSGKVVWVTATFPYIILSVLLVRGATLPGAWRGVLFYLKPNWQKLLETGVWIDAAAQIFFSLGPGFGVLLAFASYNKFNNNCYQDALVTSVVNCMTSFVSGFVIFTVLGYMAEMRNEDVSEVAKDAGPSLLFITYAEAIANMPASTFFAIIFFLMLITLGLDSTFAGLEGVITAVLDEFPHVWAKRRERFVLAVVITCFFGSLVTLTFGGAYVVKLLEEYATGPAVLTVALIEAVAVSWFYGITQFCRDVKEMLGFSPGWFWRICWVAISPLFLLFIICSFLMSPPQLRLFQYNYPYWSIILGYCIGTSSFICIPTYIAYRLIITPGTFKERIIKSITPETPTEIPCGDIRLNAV
5-hydroxytryptamine receptor 2C, sequence (P28335 whole entry): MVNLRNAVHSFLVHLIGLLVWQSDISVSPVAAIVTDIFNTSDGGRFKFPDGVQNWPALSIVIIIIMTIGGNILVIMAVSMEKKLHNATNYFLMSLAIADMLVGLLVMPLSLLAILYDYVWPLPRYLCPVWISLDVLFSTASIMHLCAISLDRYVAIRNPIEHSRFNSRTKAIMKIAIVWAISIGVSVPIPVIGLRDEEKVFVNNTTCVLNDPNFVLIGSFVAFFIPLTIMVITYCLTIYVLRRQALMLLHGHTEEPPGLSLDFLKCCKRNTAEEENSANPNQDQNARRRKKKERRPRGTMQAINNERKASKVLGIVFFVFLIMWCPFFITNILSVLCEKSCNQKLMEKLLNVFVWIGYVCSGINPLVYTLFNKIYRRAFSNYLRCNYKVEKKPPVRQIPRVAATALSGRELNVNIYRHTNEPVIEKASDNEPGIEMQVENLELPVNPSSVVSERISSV
Histamine H2 receptor (Homo sapiens), sequence (P25021 whole entry): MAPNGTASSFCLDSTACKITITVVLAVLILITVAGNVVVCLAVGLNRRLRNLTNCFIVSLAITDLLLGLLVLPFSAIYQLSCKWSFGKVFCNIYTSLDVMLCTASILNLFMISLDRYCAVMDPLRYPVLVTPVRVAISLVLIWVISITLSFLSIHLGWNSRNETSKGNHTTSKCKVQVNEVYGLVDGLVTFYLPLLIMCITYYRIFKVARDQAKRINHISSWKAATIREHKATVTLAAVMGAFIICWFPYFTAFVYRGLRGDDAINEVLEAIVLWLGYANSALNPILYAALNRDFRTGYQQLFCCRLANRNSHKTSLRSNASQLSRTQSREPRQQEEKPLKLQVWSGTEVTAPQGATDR
Cyclin-dependent kinase 19 (Homo sapiens), sequence (Q9BWU1 whole entry): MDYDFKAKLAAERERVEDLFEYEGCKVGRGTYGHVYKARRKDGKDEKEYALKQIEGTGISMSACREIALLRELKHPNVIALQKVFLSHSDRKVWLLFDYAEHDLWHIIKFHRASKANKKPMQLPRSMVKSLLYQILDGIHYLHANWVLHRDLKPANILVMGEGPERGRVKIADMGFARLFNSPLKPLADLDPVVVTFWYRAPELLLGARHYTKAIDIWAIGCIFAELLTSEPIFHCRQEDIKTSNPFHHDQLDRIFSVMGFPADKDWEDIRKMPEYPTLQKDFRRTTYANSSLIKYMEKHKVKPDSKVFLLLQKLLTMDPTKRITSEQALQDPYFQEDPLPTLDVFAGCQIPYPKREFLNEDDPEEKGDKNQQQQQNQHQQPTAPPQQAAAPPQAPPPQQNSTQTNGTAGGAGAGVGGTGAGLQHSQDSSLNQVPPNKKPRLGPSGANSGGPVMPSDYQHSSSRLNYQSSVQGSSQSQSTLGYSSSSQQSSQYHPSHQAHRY
Mitogen-activated protein kinase kinase kinase 20 (Homo sapiens), sequence (Q9NYL2 2-800 limits assumed): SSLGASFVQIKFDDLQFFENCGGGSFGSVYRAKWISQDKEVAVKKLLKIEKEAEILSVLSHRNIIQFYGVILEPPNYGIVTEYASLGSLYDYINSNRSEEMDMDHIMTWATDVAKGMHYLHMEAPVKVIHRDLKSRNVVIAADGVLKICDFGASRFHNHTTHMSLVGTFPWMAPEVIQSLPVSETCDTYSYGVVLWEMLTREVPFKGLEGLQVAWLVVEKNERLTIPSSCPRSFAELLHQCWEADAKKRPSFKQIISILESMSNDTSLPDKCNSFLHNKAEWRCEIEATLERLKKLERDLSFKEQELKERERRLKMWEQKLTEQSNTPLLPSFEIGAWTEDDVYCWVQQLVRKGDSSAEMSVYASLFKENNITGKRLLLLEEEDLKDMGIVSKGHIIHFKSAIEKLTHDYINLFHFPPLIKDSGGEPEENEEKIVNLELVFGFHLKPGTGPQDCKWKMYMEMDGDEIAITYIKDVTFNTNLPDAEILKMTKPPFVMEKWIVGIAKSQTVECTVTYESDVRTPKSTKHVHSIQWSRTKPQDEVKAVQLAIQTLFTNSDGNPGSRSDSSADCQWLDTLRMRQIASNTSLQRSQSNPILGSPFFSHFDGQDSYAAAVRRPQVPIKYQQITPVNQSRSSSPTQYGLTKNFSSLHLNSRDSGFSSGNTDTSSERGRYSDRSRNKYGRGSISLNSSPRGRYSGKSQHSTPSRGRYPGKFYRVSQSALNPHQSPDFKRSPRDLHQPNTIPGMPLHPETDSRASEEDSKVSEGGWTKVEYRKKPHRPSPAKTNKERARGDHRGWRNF
Cyclin-dependent kinase 11A (Homo sapiens), sequence (Q9UQ88 whole entry): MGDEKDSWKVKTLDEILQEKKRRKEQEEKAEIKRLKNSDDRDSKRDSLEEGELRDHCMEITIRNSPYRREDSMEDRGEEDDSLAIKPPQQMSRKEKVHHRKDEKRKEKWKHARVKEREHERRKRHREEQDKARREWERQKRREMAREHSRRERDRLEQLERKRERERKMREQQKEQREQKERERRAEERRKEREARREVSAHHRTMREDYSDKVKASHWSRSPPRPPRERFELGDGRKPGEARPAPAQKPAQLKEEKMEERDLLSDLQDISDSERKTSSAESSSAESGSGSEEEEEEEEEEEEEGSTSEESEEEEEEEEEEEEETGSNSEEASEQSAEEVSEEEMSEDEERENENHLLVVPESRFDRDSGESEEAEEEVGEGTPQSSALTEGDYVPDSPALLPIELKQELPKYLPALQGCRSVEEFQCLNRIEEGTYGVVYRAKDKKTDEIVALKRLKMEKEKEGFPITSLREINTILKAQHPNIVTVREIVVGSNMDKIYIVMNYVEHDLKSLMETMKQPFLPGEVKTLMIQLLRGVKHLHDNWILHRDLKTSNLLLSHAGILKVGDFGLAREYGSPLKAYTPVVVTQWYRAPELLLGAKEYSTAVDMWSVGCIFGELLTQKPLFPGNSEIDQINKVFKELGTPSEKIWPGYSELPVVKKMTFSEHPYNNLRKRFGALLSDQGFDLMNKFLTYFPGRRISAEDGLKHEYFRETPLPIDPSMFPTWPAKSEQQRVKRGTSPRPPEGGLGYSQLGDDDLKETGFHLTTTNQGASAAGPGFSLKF
Casein kinase II subunit alpha' (Homo sapiens), sequence (P19784 whole entry, looked up): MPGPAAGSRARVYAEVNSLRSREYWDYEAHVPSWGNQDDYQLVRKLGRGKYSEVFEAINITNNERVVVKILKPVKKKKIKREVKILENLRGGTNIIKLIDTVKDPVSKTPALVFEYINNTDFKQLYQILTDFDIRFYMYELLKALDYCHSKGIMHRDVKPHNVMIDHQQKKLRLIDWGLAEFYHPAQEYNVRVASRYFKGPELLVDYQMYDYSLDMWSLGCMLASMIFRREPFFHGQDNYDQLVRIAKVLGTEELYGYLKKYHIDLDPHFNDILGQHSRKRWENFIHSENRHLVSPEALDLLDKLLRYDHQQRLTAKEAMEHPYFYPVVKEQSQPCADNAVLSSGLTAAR
Mast/stem cell growth factor receptor Kit (Homo sapiens), P10721 [L576P], sequence (P10721 whole entry L576P): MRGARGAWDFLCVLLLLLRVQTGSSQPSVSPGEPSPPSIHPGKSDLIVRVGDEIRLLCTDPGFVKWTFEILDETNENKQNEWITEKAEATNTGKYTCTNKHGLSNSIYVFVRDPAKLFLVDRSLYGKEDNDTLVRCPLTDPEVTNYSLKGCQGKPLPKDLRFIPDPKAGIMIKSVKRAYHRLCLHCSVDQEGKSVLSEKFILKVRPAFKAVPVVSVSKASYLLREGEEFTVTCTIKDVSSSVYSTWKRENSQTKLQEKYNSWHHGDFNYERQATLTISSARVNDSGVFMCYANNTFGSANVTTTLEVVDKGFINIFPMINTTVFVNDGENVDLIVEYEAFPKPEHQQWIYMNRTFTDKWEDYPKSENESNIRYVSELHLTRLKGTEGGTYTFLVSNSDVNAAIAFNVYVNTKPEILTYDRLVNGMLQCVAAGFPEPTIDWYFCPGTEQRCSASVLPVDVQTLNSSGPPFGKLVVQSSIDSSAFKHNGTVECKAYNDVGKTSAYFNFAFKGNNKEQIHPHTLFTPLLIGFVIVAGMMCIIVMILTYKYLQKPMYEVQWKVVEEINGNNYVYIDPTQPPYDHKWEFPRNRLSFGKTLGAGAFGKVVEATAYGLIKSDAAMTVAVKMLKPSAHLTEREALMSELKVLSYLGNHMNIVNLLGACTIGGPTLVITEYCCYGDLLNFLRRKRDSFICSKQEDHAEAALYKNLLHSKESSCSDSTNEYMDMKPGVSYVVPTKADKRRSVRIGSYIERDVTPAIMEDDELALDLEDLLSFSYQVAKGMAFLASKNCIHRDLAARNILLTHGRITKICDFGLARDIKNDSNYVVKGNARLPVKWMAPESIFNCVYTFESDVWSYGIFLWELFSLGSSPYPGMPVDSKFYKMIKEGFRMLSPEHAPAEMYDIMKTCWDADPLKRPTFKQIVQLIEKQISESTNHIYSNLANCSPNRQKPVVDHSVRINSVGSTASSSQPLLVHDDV

Row | Compound | residual activity [3] | residual activity [4] | residual activity [5] | residual activity [6] | residual activity [7] | residual activity [8] | residual activity [9] | residual activity [10] | residual activity [11] | residual activity [12] | inhibition [13] | inhibition [14] | inhibition [15] | inhibition [16] | also measured
1 | NS(=O)(=O)c1cc(NC(=O)C2(c3ccccc3Cl)CC2)ccc1Oc1cccc(Cl)c1 [BAY-207] | 73% | 85% | 100% | 57% | 100% | 89% | 89% | 100% | 100% | 99% | -9.74% | 8.86% | 22.4% | 11.5% | Ki [1]: 0.25 µM; pKi [1]: 6.62; residual activity [2]: 95%
2 | NS(=O)(=O)c1cc(NC(=O)Cc2ccccc2)ccc1Oc1cccc(Cl)c1 [BAY-1797] | 95% | 91% | 100% | 67% | 97% | 78% | 72% | 82% | 91% | 100% | -7.81% | 22.7% | 0.53% | -4.85% | Ki ([17]; read-out: Ki): 6.52 µM; Ki ([17]; read-out: pKi (converted)): 5.89 µM; inhibition (Rattus norvegicus [18]): 17%; inhibition at 3 h, 10 µM [19]: 17% (not active); inhibition at 90 min, 10 µM [20]: 21% (not active); inhibition [21]: 2%; inhibition [22]: 15%; inhibition [23]: 14%; inhibition [24]: 20%; inhibition [25]: 3%; inhibition (Rattus norvegicus [26]): 10%; inhibition [27]: -9%; inhibition [28]: 35%; inhibition [29]: 44%; inhibition [30]: 3%; inhibition ([31]; Compound concentration 3.0 uM): 60%; inhibition ([31]; Compound concentration 10.0 uM): 81%; inhibition (Rattus norvegicus [32]): -10%; inhibition [33]: 4%
